Results: patent US20160375439A1, “Apparatus and Methods for Single-Particle Isolation and Single-Particle Measurement” (priority 2015, published 2016)
Several values for one entry are separate records, joined by “and”; a condition that tells them apart may be missing. Equal values may be shown once. Entries after “also recorded” stand apart in the source; their conditions may differ. Read-outs that look alike come from different tables or passages of the source.

Experiments:
22Rv1 cells [1] = test: On-chip drug accumulation measurement (fluorescence) of anti-cancer drug alone in a single 22Rv1 cell; assay type: cell-based, human; details: for corrected signal of OG-PTX / corrected signal of DNR (Fi): single 22Rv1 cell; for corrected signal of OG-PTX: FIG. 8b; for corrected signal of DNR (Fi): FIG. 8a
Text: After the cell was kept stationary, the medium was introduced into Reservoir D to induce a liquid flow to make sure the cell was stationary before running the drug accumulation experiment. An optical detection system was employed for simultaneous fluorescence measurement and bright-field imaging.^47,58
(§1) The procedure for drug accumulation measurement has previously been reported.^45-47 Briefly, the anti-cancer drug (i.e., DNR or OG-PTX) was introduced via Reservoir D and drug accumulation of the anti-cancer drug was measured in the single cell. […] DNR was first used for drug accumulation measurement as it had inherent fluorescence (λex=470 nm; λem=585 nm). Thereafter, paclitaxel that was fluorescently labelled by Oregon Green was examined (λex=492 nm; λem=524 nm), since paclitaxel was the commonly-used anti-cancer drug for prostate cancer treatment.
Drug accumulation was conducted in Chamber 2. In the first step, accumulation of the anti-cancer drug (i.e., DNR or OG-PTX) in the MDR single cell was measured in the absence of MDR inhibitor (FIG. 7a). The 22Rv1 cells naturally express the ABCG2 transporter, which actively transports drug molecules out of the cell.^50 As DNR is a well-known ABCG2 substrate,^51 the initial accumulation of DNR without the influence of any MDR inhibitor was low. […] When the cell was inside the window, the total fluorescent intensity (Ft) was measured; whereas the background (Fb) was measured when the cell was outside the window.^58, 59 Subtraction of the background (Fb) from the total fluorescent intensity (Ft) gave a corrected signal (Fi) representing the drug concentration inside the single prostate cancer cell.^45, 59
The experiment was continued using DNR at different concentrations (3.5, 7, 14, 35, 70, 350 μM) in order to determine the reasonable initial signal of drug accumulation in the cell. […] The signal obtained from DNR at 35 μM provided the optimal initial value. Similarly, other experiments were conducted on a single 22Rv1 cell by treating the cell with OG-PTX at different concentrations (0.3, 1.5, 3, 6, 30 μM). […] Therefore, the optimal fluorescence signal was obtained after treating the single cell with 3 μM of OG-PTX. After the optimization experiment for drug concentration, subsequent experiments were carried out with 35 μM of DNR or 3 μM of OG-PTX. […] A similar experiment was conducted on another single 22Rv1 cell by adding 3 μM of OG-PTX, indicating saturation in the fluorescent intensity (FIG. 8d).

22Rv1 cells [2] = assay type: cell-based, human
Method: as §1
As shown in FIG. 11a (solid line), the fluorescence signal of the DNR was 630±77. After adding different concentrations of FTC, the signals were enhanced. Similar experiments were performed by adding different concentrations of OG-PTX (FIG. 11a: dashed line). Therefore, the optimal fluorescence signals were obtained after treating the single cells with both anti-cancer drugs in the presence of 40 μM of FTC.
Obvious enhancement in fluorescent intensity (at 585 nm) was observed (i.e., 2.8±0.3, 4.4±0.5, 4.9±0.5 fold-increase (p<0.0001). After washing the cell, anti-P-gp was applied. The fluorescence signal (524 nm) increased from 265±70 to 615±72 cps, confirming that the PCa cell was cancerous.
One of the key requirements for the effectiveness of chemotherapy is the sufficient delivery of chemotherapeutic drug into the cancer cell.^66-69 As mentioned, drug resistance due to MDR activity is due to the function of ABC transporters that reduce intracellular drug accumulation. […] Similar results were obtained after applying OG-PTX in the presence of same MDR inhibitors (FIG. 15a: black solid line & FIG. 15b: gray solid line) (3.0±0.2, 3.1±0.2, 3.1±0.2, and 2.9±0.2, 2.9±0.2, 3.0±0.2 of fold-increase, respectively). […] On the other hand, after accumulation of DNR in the presence of MDR inhibitors, DNR was more effectively retained in MDR cells following removal of MDR inhibitors, particularly FTC from single MDR-treated cell (FIG. 14b: black dashed line).

22Rv1 cells [3] = assay type: cell-based, human; details: for a2 (pre-exponential factor, normalized fluorescence plateau) / b2: same single cell
Text: We previously reported that a mono-exponential drug uptake model could be applied to fit the experimental data in order to compare drug accumulation kinetics in MDR cells.^45 The following equation was used to describe the time-dependent change of single-cell DNR accumulation:
where x is time; y is the normalized fluorescence signal obtained by dividing the intracellular concentrations by the extracellular DNR concentrations; a is the y-axis value that will reach when the time x is sufficiently large (this value is called pre-exponential factor that is related to the cell permeability coefficient p of drug uptake and the pump rate k for drug efflux); b, which is the half time when y reaches 50% of a, is given by
The curve fitting analysis was performed on the normalized fluorescence using the SAS software. […] Because of the initially large drug concentration gradient across the cell membrane, the initial cellular accumulation rate of drugs is very fast,^65 and this fast rate is shown as a short half time of ˜106 s in FIG. 13a. When the concentration gradient became smaller, the drug uptake rate became slower; ultimately, the signal reached a plateau as the drug uptake rate was close to the drug efflux rate. In the presence of FTC, drug accumulation increased (FIG. 13b). This significant drug enhancement is believed to be caused by the action of FTC on the ABCG2 drug efflux pump.
In a similar manner, an experiment was conducted by treating a 22Rv1 cell by 3 μM of OG-PTX, followed by OG-PTX-loaded FTC40 of μM, as shown in FIGS. 13c and 13d.

WBC [4] = test: Trypan blue treatment of WBC; assay type: cell-based, mouse; details: after high DNR accumulation, FIG. 12 f3
WBC [5] = test: Single-cell DNR accumulation in white blood cell (WBC); assay type: cell-based, mouse; details: 35 μM DNR alone, FIG. 12c
Method: as §1
On the other hand, in a similar experiment conducted on the WBC (FIG. 12c), the cell was not stained by the anti-Pgp antibody, indicating it is not a PCa cell.

22Rv1 cells [6] = test: Trypan blue treatment of single 22Rv1 cell (cell viability); assay type: cell-based, human
Text: This dye was used to check if the cell membrane was compromised after the exposure to the various conditions, as a measure of cell viability.

22Rv1 cells [7] = test: Effect of MDR inhibitors on DNR accumulation in single 22Rv1 cell; assay type: cell-based, human
22Rv1 cells [8] = details: 22Rv1 cells treated by FTC (25 μM); cited from earlier work
leukemia cells = details: simultaneous administration of verapamil & CsA and MK-571; cited from earlier work
[9] = Step 2: 3 μM OG-PTX + 40 μM FTC

## Oregon Green® 488-conjugated paclitaxel [OG-PTX]
22Rv1 cells [1]; 0.3 μM OG-PTX
  corrected signal of OG-PTX: 60±48 cps
22Rv1 cells [1]; 1.5 μM OG-PTX
  corrected signal of OG-PTX: 100±52 cps
22Rv1 cells [1]; 3 μM OG-PTX alone for 4000 s (negative control), three successive values, FIG. 15a dotted line
  fold-increase in OG-PTX accumulation: 1.1±0.1 fold and 1.2±0.1 fold
22Rv1 cells [1]; 3 μM OG-PTX
  corrected signal of OG-PTX: 510±88 cps and 500±55 cps
22Rv1 cells [1]; 6 μM OG-PTX
  corrected signal of OG-PTX: 1300±56 cps
22Rv1 cells [1]; 30 μM OG-PTX
  corrected signal of OG-PTX: 2900±72 cps
22Rv1 cells [2]; single 22Rv1 cell isolated from WBCs, successive MDR inhibitor treatments not given, FIG. 12b
  fold-increase in fluorescent intensity (at 585 nm), OG-PTX accumulation: 2.8±0.3 fold and 4.4±0.5 fold and 4.9±0.5 fold
22Rv1 cells [3]; 3 μM OG-PTX only, FIG. 13c
  half-time to reach plateau: 98 s
22Rv1 cells [3]; Step 1: 3 μM OG-PTX only
  a1 (pre-exponential factor, normalized fluorescence plateau): 1.0±0.1
  b1: 0.007 ± 0.006 s⁻¹

## COc1cccc2c1C(=O)c1c(O)c3c(c(O)c1C2=O)C[C@@](O)(C(C)=O)C[C@@H]3O[C@H]1C[C@H](N)[C@H](O)[C@H](C)O1 [DNR, Daunorubicin]
WBC [4]
  trypan blue staining of WBC: staining by trypan blue
WBC [5]
  DNR accumulation behaviour in WBC: continued to rise; also recorded: continuous increase in drug accumulation
22Rv1 cells [1]; 3.5 μM DNR
  corrected signal of DNR (Fi): 100±37 cps
22Rv1 cells [1]; 7 μM DNR
  corrected signal of DNR (Fi): 290±39 cps
22Rv1 cells [1]; 14 μM DNR
  corrected signal of DNR (Fi): 260±41 cps
22Rv1 cells [1]; 35 μM DNR alone for 4000 s (negative control), three successive values, FIG. 14a dotted line
  fold-increase in DNR accumulation: 1.1±0.1 fold and 1.2±0.1 fold
22Rv1 cells [1]; 35 μM DNR only (negative control), FIG. 9a bottom curve
  fold-increase in fluorescence: 1.3±0.2 fold and 1.3 fold
22Rv1 cells [1]; 35 μM DNR
  corrected signal of DNR (Fi): 535±92 cps and 530±42 cps
22Rv1 cells [1]; 70 μM DNR
  corrected signal of DNR (Fi): 550±47 cps
22Rv1 cells [1]; 350 μM DNR
  corrected signal of DNR (Fi): 1280±50 cps
22Rv1 cells [1]; before adding FTC, FIG. 11a solid line
  fluorescence signal of the DNR: 630±77
22Rv1 cells [6]; single 22Rv1 cell after 35 μM DNR, DEP capture and xenon lamp excitation, FIG. 9c
  cell viability by trypan blue: viable
22Rv1 cells [6]; single 22Rv1 cells after 35 μM DNR or 3 μM OG-PTX in the presence of 40 μM FTC, FIG. 13
  trypan blue staining (cell membrane integrity): no cell staining
22Rv1 cells [7]; single 22Rv1 cell isolated from WBCs, successive MDR inhibitor treatments not given, FIG. 12a
  fold-increase in fluorescent intensity (at 585 nm), DNR accumulation: 3.3±0.3 fold and 4.5±0.5 fold and 5.4±0.5 fold
22Rv1 cells [3]; 35 μM DNR only, FIG. 13a
  half time to reach the plateau: ~106 s
22Rv1 cells [3]; Step 1: 35 μM DNR only
  a1 (pre-exponential factor, normalized fluorescence plateau): 1.0±0.3
  b1: 0.010 ± 0.003 s⁻¹

## COc1ccc2c3c([nH]c2c1)[C@H](C=C(C)C)N1C(=O)[C@@H]2CCCN2C(=O)[C@@H]1C3 [FTC, fumitremorgin C]
22Rv1 cells [8]
  fold accumulation of D-luciferin: 2.0 fold
22Rv1 cells [7]; 35 μM DNR + 40 μM FTC, FIG. 13
  fold-increase for DNR accumulation, based on curve fitting: 3.4±0.2 fold
22Rv1 cells [7]; 35 μM DNR + 40 μM FTC, after 1000 s of adding inhibitor, three successive values, FIG. 14a solid line
  fold-increase in DNR accumulation: ~3.7±0.2 fold and ~3.8±0.2 fold
22Rv1 cells [7]; 35 μM DNR, FTC removed after 2000 s, three successive values, FIG. 14a dashed line
  fold-increase in DNR accumulation after removing inhibitor: 3.8±0.2 fold and 3.2±0.2 fold and 2.7±0.2 fold
22Rv1 cells [7]; 35 μM DNR, after adding 40 μM FTC, FIG. 9a top curve
  fold-increase in DNR accumulation signal: 3.5±0.3 fold
22Rv1 cells [7]; FTC, followed by CsA, then FTC+CsA on the same cell, FIG. 14c
  fold-increase in DNR accumulation, average of 6 individual cell experiments: 3.7±0.4 fold
22Rv1 cells [7]; single 22Rv1 cell, DNR and OG-PTX accumulation, FIG. 11
  MDR inhibitor concentration giving the optimal fluorescence signal: 40 µM
22Rv1 cells [2]; 3 μM OG-PTX + 40 μM FTC, FIG. 13
  fold-increase for OG-PTX accumulation, based on curve fitting: 2.4±0.4 fold
22Rv1 cells [2]; 3 μM OG-PTX + 40 μM FTC, three successive values, FIG. 15a solid line
  fold-increase in OG-PTX accumulation: 3.0±0.2 fold and 3.1±0.2 fold
22Rv1 cells [2]; 3 μM OG-PTX, FTC removed, three successive values, FIG. 15a dashed line
  fold-increase in OG-PTX accumulation after removing inhibitor: 2.7±0.2 fold and 1.65±0.2 fold and 1.4±0.2 fold
22Rv1 cells [2]; FTC, followed by CsA, then FTC+CsA on the same cell, FIG. 15c
  fold-increase in OG-PTX accumulation, average of 6 individual cell experiments: 2.7±0.3 fold
22Rv1 cells [3]; 3 μM OG-PTX + 40 μM FTC, FIG. 13d
  half-time to reach plateau: 24 s
22Rv1 cells [3]; 35 μM DNR + 40 μM FTC, FIG. 13b
  half time to reach the plateau: 346 s
22Rv1 cells [3]; [9]
  a2 (pre-exponential factor, normalized fluorescence plateau): 2.4±0.4
  b2: 0.003 ± 0.008 s⁻¹
22Rv1 cells [3]; Step 2: 35 μM DNR + 40 μM FTC
  a2 (pre-exponential factor, normalized fluorescence plateau): 3.4±0.2
  b2: 0.004 ± 0.002 s⁻¹

## COc1ccc(CCN(C)CCCC(C#N)(c2ccc(OC)c(OC)c2)C(C)C)cc1OC (stereo not shown) [verapamil]
Leukemia cells
  intracellular levels of [3H]-azacytidine: increase

## CN(C)C(=O)CCSC(SCCC(=O)O)c1cccc(/C=C/c2ccc3ccc(Cl)cc3n2)c1 (stereo not shown) [MK-571]
Leukemia cells
  intracellular levels of [3H]-azacytidine: increase
